Laboratory results from ChEMBL document CHEMBL3045590, “Design, synthesis, bioactivity, and structure-activity relationship (SAR) studies of novel benzoylphenylureas containing oxime ether group” (2008).
≈ marks a conversion by molar mass, not a printed value.

What was measured:
Type in all cases: functional
[1] = tested on: Cucumis sativus; experiment: Growth regulation of Cucumis sativus (cucumber) seeds assessed as stimulation of radicle growth at 10 mg/l at 26 degC after 5 days
[2] = tested on: Mythimna separata; experiment: Larvicidal activity against fourth-instar larval stage of Mythimna separata (Oriental armyworm) in compound-pretreated corn leaves assessed as mortality at 10 mg/l at 25 +/-1 degC after 4 days
[3] = tested on: Culex pipiens pallens; experiment: Larvicidal activity against fourth-instar larval stage of Culex pipiens pallens (mosquito) assessed as mortality at 0.01 mg/l at 25 +/-1 degC after 8 days; settings: 192 h
[4] = tested on: Culex pipiens pallens; experiment: Larvicidal activity against fourth-instar larval stage of Culex pipiens pallens (mosquito) assessed as mortality at 0.005 mg/l at 25 +/-1 degC after 8 days; settings: 192 h
[5] = tested on: Mythimna separata; experiment: Larvicidal activity against fourth-instar larval stage of Mythimna separata (Oriental armyworm) in compound-pretreated corn leaves assessed as mortality at 25 mg/l at 25 +/-1 degC after 4 days
[6] = tested on: Culex pipiens pallens; experiment: Larvicidal activity against fourth-instar larval stage of Culex pipiens pallens (mosquito) assessed as mortality at 0.05 mg/l at 25 +/-1 degC after 8 days; settings: 192 h
[7] = tested on: Mythimna separata; experiment: Larvicidal activity against fourth-instar larval stage of Mythimna separata (Oriental armyworm) in compound-pretreated corn leaves assessed as mortality at 2.5 mg/l at 25 +/-1 degC after 4 days
[8] = tested on: Culex pipiens pallens; experiment: Larvicidal activity against fourth-instar larval stage of Culex pipiens pallens (mosquito) assessed as mortality at 0.025 mg/l at 25 +/-1 degC after 8 days; settings: 192 h
[9] = tested on: Mythimna separata; experiment: Larvicidal activity against fourth-instar larval stage of Mythimna separata (Oriental armyworm) in compound-pretreated corn leaves assessed as mortality at 50 mg/l at 25 +/-1 degC after 4 days
[10] = tested on: Culex pipiens pallens; experiment: Larvicidal activity against fourth-instar larval stage of Culex pipiens pallens (mosquito) assessed as mortality at 0.0025 mg/l at 25 +/-1 degC after 8 days; settings: 192 h
[11] = tested on: Culex pipiens pallens; experiment: Larvicidal activity against fourth-instar larval stage of Culex pipiens pallens (mosquito) assessed as mortality at 0.1 mg/l at 25 +/-1 degC after 8 days; settings: 192 h
[12] = tested on: Mythimna separata; experiment: Larvicidal activity against fourth-instar larval stage of Mythimna separata (Oriental armyworm) in compound-pretreated corn leaves assessed as mortality at 25 +/-1 degC after 4 days
[13] = tested on: Mythimna separata; experiment: Larvicidal activity against fourth-instar larval stage of Mythimna separata (Oriental armyworm) in compound-pretreated corn leaves assessed as mortality at 5 mg/l at 25 +/-1 degC after 4 days
[14] = tested on: Mythimna separata; experiment: Larvicidal activity against fourth-instar larval stage of Mythimna separata (Oriental armyworm) in compound-pretreated corn leaves assessed as mortality at 1 mg/l at 25 +/-1 degC after 4 days
[15] = tested on: Culex pipiens pallens; experiment: Larvicidal activity against fourth-instar larval stage of Culex pipiens pallens (mosquito) assessed as mortality at 0.25 mg/l at 25 +/-1 degC after 8 days; settings: 192 h
[16] = tested on: Mythimna separata; experiment: Larvicidal activity against fourth-instar larval stage of Mythimna separata (Oriental armyworm) in compound-pretreated corn leaves assessed as mortality at 100 mg/l at 25 +/-1 degC after 4 days
[17] = tested on: Culex pipiens pallens; experiment: Larvicidal activity against fourth-instar larval stage of Culex pipiens pallens (mosquito) assessed as mortality at 0.5 mg/l at 25 +/-1 degC after 8 days; settings: 192 h
[18] = tested on: Mythimna separata; experiment: Larvicidal activity against fourth-instar larval stage of Mythimna separata (Oriental armyworm) in compound-pretreated corn leaves assessed as mortality at 200 mg/l at 25 +/-1 degC after 4 days
[19] = tested on: Culex pipiens pallens; experiment: Larvicidal activity against fourth-instar larval stage of Culex pipiens pallens (mosquito) assessed as mortality at 1 mg/l at 25 +/-1 degC after 8 days; settings: 192 h
[20] = tested on: Culex pipiens pallens; experiment: Larvicidal activity against fourth-instar larval stage of Culex pipiens pallens (mosquito) assessed as mortality at 0.001 mg/l at 25 +/-1 degC after 8 days; settings: 192 h

| SMILES | Activity [1] [%] | mortality at 10 µg/mL [2] [%] | mortality at 0.01 µg/mL [3] [%] | mortality at 0.005 µg/mL [4] [%] | mortality at 25 µg/mL [5] [%] | mortality at 0.05 µg/mL [6] [%] | mortality at 2.5 µg/mL [7] [%] | mortality at 0.025 µg/mL [8] [%] | mortality at 50 µg/mL [9] [%] | mortality at 0.0025 µg/mL [10] [%] | mortality at 0.1 µg/mL [11] [%] | LC50 [12] [µg/mL] | mortality at 5 µg/mL [13] [%] | mortality at 1 µg/mL [14] [%] | mortality at 0.25 µg/mL [15] [%] | mortality at 100 µg/mL [16] [%] | mortality at 0.5 µg/mL [17] [%] | mortality at 200 µg/mL [18] [%] | mortality at 1 µg/mL [19] [%] | mortality at 0.001 µg/mL [20] [%] |
| --- | --- | --- | --- | --- | --- | --- | --- | --- | --- | --- | --- | --- | --- | --- | --- | --- | --- | --- | --- | --- |
| CCCC(C)O/N=C/c1ccc(NC(=O)NC(=O)c2c(F)cccc2F)cc1 (configuration not stated) | 45 | 20 | 40 | 20 | 70 | 100 | 0 | 100 | 80 | 10 | 100 | – | – | – | – | – | – | – | – | – |
| O=C(NC(=O)c1c(Cl)cccc1Cl)Nc1ccc(Cl)cc1 [DICHLORBENZURON] | – | – | – | – | – | – | – | – | – | – | – | 1.82 (≈ 5.3 µM) | – | – | – | – | – | – | – | – |
| CCC(C)O/N=C/c1ccc(NC(=O)NC(=O)c2c(F)cccc2F)cc1 (configuration not stated) | – | 80 | 40 | 20 | 100 | 100 | 30 | 100 | – | 10 | 100 | – | 50 | 0 | – | – | – | – | – | – |
| O=C(NC(=O)c1c(F)cccc1F)Nc1ccc(/C=N/OCc2ccccc2)cc1 | 60 | – | – | – | 0 | – | – | – | 10 | – | 10 | – | – | – | 20 | 30 | 100 | 40 | 100 | – |
| O=C(NC(=O)c1c(F)cccc1F)Nc1cc(Cl)c(Oc2ncc(C(F)(F)F)cc2Cl)c(Cl)c1 [CHLORFLUAZURON] | – | – | – | – | – | – | – | – | – | – | – | 1.03 (≈ 1.91 µM) | – | – | – | – | – | – | – | – |
| O=C(NC(=O)c1c(F)cccc1F)Nc1cc(Cl)c(F)c(Cl)c1F [TEFLUBENZURON] | – | – | – | – | – | – | – | – | – | – | – | 1.14 (≈ 2.99 µM) | – | – | – | – | – | – | – | – |
| CCCCO/N=C/c1ccc(NC(=O)NC(=O)c2c(F)cccc2F)cc1 | 50 | – | – | – | – | 100 | – | 0 | 0 | – | 100 | – | – | – | 100 | 40 | 100 | 50 | 100 | – |
| O=C(NC(=O)c1c(F)cccc1F)Nc1ccc(/C=N/OCCCl)cc1 | 110 | 100 | 0 | – | – | 90 | 55 | 20 | 100 | – | 90 | – | 75 | 0 | 100 | – | 100 | – | 100 | – |
| O=C(NC(=O)c1c(F)cccc1F)Nc1ccc(/C=N/OC2CCCC2)cc1 | 85 | – | – | – | – | 10 | – | 0 | 0 | – | 100 | – | – | – | 100 | 20 | 100 | 70 | 100 | – |
| O=C(NC(=O)c1c(F)cccc1F)Nc1ccc(/C=N/OCCF)cc1 | 110 | 20 | – | – | 90 | 10 | 0 | 0 | 90 | – | 60 | – | – | – | 100 | – | 100 | – | 100 | – |
| COC(=O)CO/N=C/c1ccc(NC(=O)NC(=O)c2c(F)cccc2F)cc1 | – | 10 | – | – | 30 | – | 0 | – | 56.7 | – | 0 | – | – | – | 80 | 80 | 100 | 90 | 100 | – |
| C#CCO/N=C/c1ccc(NC(=O)NC(=O)c2c(F)cccc2F)cc1 | – | 55 | 0 | – | 75 | 40 | 10 | 10 | 100 | – | 100 | – | – | 0 | 100 | – | 100 | – | 100 | – |
| COCCO/N=C/c1ccc(NC(=O)NC(=O)c2c(F)cccc2F)cc1 | 30 | – | – | – | – | – | – | – | 0 | – | – | – | – | – | – | 10 | 0 | 40 | 100 | – |
| CCCO/N=C/c1ccc(NC(=O)NC(=O)c2c(F)cccc2F)cc1 | – | – | – | – | 20 | 50 | 0 | 0 | 70 | – | 100 | – | – | – | 100 | 80 | 100 | – | 100 | – |
| O=C(NC(=O)c1c(F)cccc1F)Nc1ccc(/C=N/OCC2CC2)cc1 | – | 100 | 100 | 100 | 100 | – | 90 | – | – | 60 | – | – | 100 | 0 | – | – | – | – | – | 0 |
| CC(C)CO/N=C/c1ccc(NC(=O)NC(=O)c2c(F)cccc2F)cc1 | 45 | – | 0 | – | 30 | 10 | 0 | 10 | 80 | – | 100 | – | – | – | 100 | 100 | 100 | – | 100 | – |
| CO/N=C/c1ccc(NC(=O)NC(=O)c2c(F)cccc2F)cc1 | 30 | – | 0 | – | 0 | 100 | – | 10 | 40 | – | 100 | – | – | – | 100 | 90 | 100 | – | 100 | – |
| O=C(NC(=O)c1c(F)cccc1F)Nc1cc(Cl)c(OC(F)(F)C(F)F)c(Cl)c1 [HEXAFLUMURON] | – | – | – | – | – | – | – | – | – | – | – | 4.7 (≈ 10.2 µM) | – | – | – | – | – | – | – | – |
| CCO/N=C/c1ccc(NC(=O)NC(=O)c2c(F)cccc2F)cc1 | 0 | 10 | 0 | – | 75 | – | – | 10 | 100 | – | 100 | – | 0 | – | 100 | 100 | 100 | – | 100 | – |
| C=CCO/N=C/c1ccc(NC(=O)NC(=O)c2c(F)cccc2F)cc1 | 120 | 0 | – | – | 10 | – | – | 0 | 66.7 | – | 90 | – | – | – | 100 | 90 | 100 | – | 100 | – |
| O=C(NC(=O)c1ccccc1Cl)Nc1ccc(Cl)cc1 [CHLORBENZURON] | – | – | – | – | – | – | – | – | – | – | – | 2.29 (≈ 7.41 µM) | – | – | – | – | – | – | – | – |
